Results reported in US8435958B2, “Method for producing pectin hydrolysis products” (N.V. Nutricia, priority 2000, dated 2013).
Each block holds one compound with its values, some of them ahead of it.

Columns and labels:
E. coli [1] = assay: Prevention of adhesion of pathogenic germs to human uroepithelial cells; type: cell-based; conditions: human uroepithelial cells pre-incubated 1, 2 or 3 hours, various concentrations
Procedure: (§1) For this test, human uroepithelian cells obtained by centrifugation from morning urine as well as two strains of staphylococcus aureus and E. coli were used, each as a suspension with 10^9 germs/mL.
(§2) Epithelial cells and germ suspension were incubated together at 37° C. for 30 minutes. The epithelial cells then were separated from the non-adherent germs by membrane filtration (8μ). The filters were washed several times, placed into normal saline, and the epithelial cells were suspended in it. After centrifugation of the suspension in saline, the pellet was applied to slides and stained according to May-Grünwald and Giemsa. The number of germs adhering to 50 epithelial cells were counted. This number represented the blank value. Epithelial cells to which no germ solution had been added were used as a control.
(§3) In the main test, epithelial first were incubated with aqueous solutions of various concentrations consisting of pectin hydrolysis products produced according to the invention (according to Example 1) for 1, 2 or 3 hours. They were then combined with the germ suspension and treated further as described above. The measuring value was obtained by counting the germs adhering to 50 epithelial cells.

staphylococcus aureus = assay: as above; type: cell-based; conditions: human uroepithelial cells pre-incubated 1, 2 or 3 hours, various concentrations
Procedure: as §1, §2, §3

E. coli [2] = conditions: from EP 0 716 605 B1; cited from earlier work
HT-29 = assay: Growth of colon cancer cell lines on extracellular matrix (ECM), living cell count by trypan blue; type: cell-based, human; conditions: for Reduction in Cell Growth: 48 hours
Procedure: (§4) Human colon cancer cell lines HT-29 or Caco-2 were seeded with a cell density of 1×10^4 cells/ml in 15 mm Petri dishes and cultivated in medium RPMI 1640+10% fetal calf serum (FCS) (HT-29) or, respectively, in MEM+10% FCS (Caco-2) at 37° C. under an atmosphere containing 5% CO2. The cells were left to grow for 1 to 2 days until reaching confluence. The dishes were then washed once with PBS, then incubated with PBS and 0.5% Triton X-100 for 30 minutes at room temperature on an agitator, and then washed 3 times with PBS. The previously described cell lines then were again seeded on the dishes with the ECM layers prepared in this way. The influence of the pectin hydrolysate on cell growth was determined by counting the cells. For this, the cells were again removed after 48 hours with trypsine/EDTA solution in HBBS (10 min) and were washed in PBS solution. Then the number of living cells was determined by staining with trypan blue solution (650 mg trypan blue in 400 ml 0.9% NaCl, 1:1 (v/v)) in a Neubauer counting chamber. As a control, experiments were performed with glucose.

Caco-2 = assay: as above; type: cell-based, human; conditions: for Reduction in Cell Growth: 48 hours
Procedure: as §4

Caco-2 cells = system: Caco-2 cells
Description: The test is based on the migration of cells through the pores of a nucleopore polycarbonate filter in a protein gel that contains several ECM proteins, such as, for example, type 1 and type III collagen, fibronectin, and laminin, to a nitrocellulose filter. […] As a control, the effect of glucose on the invasive capacity of Caco-2 cells was studied.

[3] = target: T1, galectin-3 on Caco-2 colon cancer cells (Homo sapiens, UniProt P17931); assay: Inhibition of anti-galectin-3 monoclonal antibody binding, immunofluorescence/flow cytometry
T1 construct: endogenous in cells; host or cells: Caco-2 human colon cancer cells
Procedure: (§5) The expression of galectin-3 on colon cancer cells was determined with immunofluorescence/flow cytometry methods using an anti-galectin-3-specific monoclonal antibody (mouse-Ig) and a corresponding anti-mouse FITC-coupled secondary antibody.

[4] = target: T2, galectin-3 on HT 29 colon cancer cells (Homo sapiens, UniProt P17931); assay: as above
T2 construct: endogenous in cells; host or cells: HT-29 (HT 29) human colon cancer cells
Procedure: as §5

[5] = HT 29, in relation to the concentration used
[6] = Caco-2, in relation to the concentration used

T1 sequence (P17931 whole entry): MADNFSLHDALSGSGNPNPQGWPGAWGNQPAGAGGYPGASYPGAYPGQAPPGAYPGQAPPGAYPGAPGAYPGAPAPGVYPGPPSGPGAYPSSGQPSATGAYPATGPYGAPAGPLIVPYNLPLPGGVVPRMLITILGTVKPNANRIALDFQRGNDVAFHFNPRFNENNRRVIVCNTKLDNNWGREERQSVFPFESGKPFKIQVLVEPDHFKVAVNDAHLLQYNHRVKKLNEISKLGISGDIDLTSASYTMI
T2 sequence (P17931 whole entry): as above

SMILES: OC[C@H]1O[C@H](O[C@]2(CO)O[C@H](CO[C@H]3O[C@H](CO)[C@@H](O)[C@H](O)[C@H]3O)[C@@H](O)[C@@H]2O)[C@H](O)[C@@H](O)[C@@H]1O [isomelezitose]
blockage of germ adhesion to the epithelial cells (E. coli [1]): No reduction | blockage of germ adhesion to the epithelial cells (staphylococcus aureus): No reduction

SMILES: O=C(O)[C@H]1OC(O)[C@H](O)[C@@H](O)[C@H]1O (some centres unmarked) [monogalacturonic acid]
blocking of the adhesion (E. coli [2]): no blocking

SMILES: O=C(O)[C@H]1O[C@H](O[C@@H]2[C@H](O)[C@@H](O)[C@@H](O[C@@H]3[C@H](O)[C@@H](O)C(O)O[C@@H]3C(=O)O)O[C@@H]2C(=O)O)[C@H](O)[C@@H](O)[C@H]1O (some centres unmarked) [trigalacturonide]
blocking of the adhesion (E. coli [2]): ≤ 84.6%

SMILES: OC[C@H]1O[C@@](CO)(OC[C@@]2(OC[C@@]3(O[C@H]4O[C@H](CO)[C@@H](O)[C@H](O)[C@H]4O)O[C@H](CO)[C@@H](O)[C@@H]3O)O[C@H](CO)[C@@H](O)[C@@H]2O)[C@@H](O)[C@@H]1O [nystose]
blockage of germ adhesion to the epithelial cells (E. coli [1]): No reduction | blockage of germ adhesion to the epithelial cells (staphylococcus aureus): No reduction

reduction of the invasive capacity of Caco-2 cells (text summary of Table 2) (Caco-2 cells): only caused a slight reduction | Reduction of Binding Monoclonal Anti-Galectin-3 Antibody ([3]; Caco-2, concentration 0.01%): 0 | Reduction of Binding Monoclonal Anti-Galectin-3 Antibody ([3]; Caco-2, concentration 0.1%): 0 | Reduction of Binding Monoclonal Anti-Galectin-3 Antibody ([3]; Caco-2, concentration 1.0%): 0 | reduction of the binding of the monoclonal anti-galectin-3 antibody (Table 3) [3, 6]: not at all or only slightly | Reduction of Binding Monoclonal Anti-Galectin-3 Antibody ([4]; HT 29, concentration 0.01%): 0 | Reduction of Binding Monoclonal Anti-Galectin-3 Antibody ([4]; HT 29, concentration 0.1%): 0 | Reduction of Binding Monoclonal Anti-Galectin-3 Antibody ([4]; HT 29, concentration 1.0%): 2 | reduction of the binding of the monoclonal anti-galectin-3 antibody (Table 3) [4, 5]: not at all or only slightly
SMILES: O=C[C@H](O)[C@@H](O)[C@H](O)[C@H](O)CO [Glucose, glucose]
Reduction in Cell Growth (HT-29; HT 29, concentration 0.01%): 0% | Reduction in Cell Growth (HT-29; HT 29, concentration 0.1%): 1% | Reduction in Cell Growth (HT-29; HT 29, concentration 1.0%): 0% | reduced cell growth (text summary of Table 1) (HT-29; [5]): no influence | Reduction in Cell Growth (Caco-2; Caco-2, concentration 0.01%): 0% | Reduction in Cell Growth (Caco-2; Caco-2, concentration 0.1%): 0% | Reduction in Cell Growth (Caco-2; Caco-2, concentration 1.0%): 0% | reduced cell growth (text summary of Table 1) (Caco-2; [6]): no influence

SMILES: OC[C@H]1O[C@H](OC[C@H]2O[C@H](O[C@]3(CO)O[C@H](CO)[C@@H](O)[C@@H]3O)[C@H](O)[C@@H](O)[C@@H]2O)[C@H](O)[C@@H](O)[C@H]1O [raffinose]
blockage of germ adhesion to the epithelial cells (E. coli [1]): No reduction | blockage of germ adhesion to the epithelial cells (staphylococcus aureus): No reduction

SMILES: O=C(O)[C@H]1O[C@H](O[C@@H]2[C@H](O)[C@@H](O)[C@@H](O)O[C@@H]2C(=O)O)[C@H](O)[C@@H](O)[C@H]1O [digalacturonide]
blocking of the adhesion (E. coli [2]): ≤ 91.7%
